Laboratory results from the supplement of paper PMC11208160.

Test: recombinant barcode read abundance after kanamycin selection (control-corrected) (log10(CPM+1)); higher = more efficient recombination; sequences stand for … in AGTGCAGAGAAAATCGGCCAGTTTTCTCTGCCTGCAGTCCGCATGCCGT…AGATTTATGCAGCGGACTGCCTTTCTCCCAAAGTGATAAACCGGACAGTATCATGGACCGGTTTTCCCGGTAATCCGTATTTGCAAGGTTGGTTTCACT; site = the 11-nt target
Protocol: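 Pooled E. coli target-specificity screen for the IS621 bridge recombinase. Each library plasmid pairs an 11-nt target (CT core) with a bridge RNA whose target-binding loop (9-nt LTG + 4-nt RTG) is reprogrammed; the rest of the 177-nt WT IS621 bridge RNA scaffold is fixed. The plasmid is co-electroporated with a WT donor plasmid; recombinase is induced with 0.1 mM IPTG and recombinants are selected on kanamycin. Recombinant barcodes are sequenced, converted to CPM, averaged over two biological replicates and corrected by the unselected control CPM. Molecule = full bridge RNA written as DNA: LTG = specificity nt 1-9, RTG = reverse complement of specificity nt 8-11, in the WT scaffold.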
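Further: IS621 recombinase and bridge RNA in Escherichia coli cells.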

Row | Sequence | recombinant barcode read abundance (log10)
1 | ACTTCTGCTTGGGTTCTAACCTGTTGCCT (site ACTTCACCTAG) | 0.0609
2 | ACTTCTGCTTGGGTTCTAACCTGTTGCCT (site ACTTCTGCTAG) | 0.528
3 | ACTTGACCTTGGGTTCTAACCTGTTGCAG (site ACTTGACCTCT) | 1.83
4 | ACTTGACCTTGGGTTCTAACCTGTTGCAG (site ATTTGACCTCG) | 0.0223
5 | ACTTGTTCTTGGGTTCTAACCTGTTGCCT (site ACTTGTTCTAG) | 0.567
6 | ACTTGTTCTTGGGTTCTAACCTGTTGCCT (site CCTTGTTCTAG) | 0.202
7 | ACTTGTTCTTGGGTTCTAACCTGTTGCCT (site GCTTGTTCTAG) | 0.157
8 | ACTTGTTCTTGGGTTCTAACCTGTTGCCT (site TCTTGTTCTAG) | 0.0997
9 | ACTTTAGCTTGGGTTCTAACCTGTTGCTT (site ACTTGAACTAA) | 0.438
10 | ACTTTAGCTTGGGTTCTAACCTGTTGCTT (site ACTTTAGCTAA) | 0.399
11 | AGAAAAGCTTGGGTTCTAACCTGTTGCAA (site AGAAAAGCTTT) | 1.06
12 | AGAAAAGCTTGGGTTCTAACCTGTTGCAA (site CATGCTTCTAG) | 0.295
13 | AGAAAGGCTTGGGTTCTAACCTGTTGCGC (site AGAAAGGCTGC) | 2.32
14 | AGAAAGGCTTGGGTTCTAACCTGTTGCGC (site GTGGGCACTAG) | 0.0408
15 | AGAACGTCTTGGGTTCTAACCTGTTGCCT (site AGAACGTCTAG) | 1.09
16 | AGAACGTCTTGGGTTCTAACCTGTTGCCT (site AGAATGTCTAG) | 0.0292
17 | AGAACTCCTTGGGTTCTAACCTGTTGCTG (site AGAACTCCTCA) | 0.323
18 | AGAACTCCTTGGGTTCTAACCTGTTGCTG (site TCTTGCTCTAG) | 0.0485
19 | AGAAGTCCTTGGGTTCTAACCTGTTGCGG (site AGAAGTCCTCA) | 0.0978
20 | AGAAGTCCTTGGGTTCTAACCTGTTGCGG (site AGAAGTCCTCC) | 1.91
21 | AGAAGTCCTTGGGTTCTAACCTGTTGCGG (site AGAAGTCCTCG) | 0.101
22 | AGAAGTCCTTGGGTTCTAACCTGTTGCGG (site AGAAGTCCTCT) | 1.32

Row | Sequence | recombinant barcode read abundance (log10)
23 | AGACAGACTTGGGTTCTAACCTGTTGCGT (site AGACAGACTAC) | 3.32
24 | AGACAGACTTGGGTTCTAACCTGTTGCGT (site CAGAGCTCTCG) | 0.0309
25 | AGACCATCTTGGGTTCTAACCTGTTGCCT (site AGACCATCTAG) | 0.751
26 | AGACCATCTTGGGTTCTAACCTGTTGCCT (site AGATCATCTAA) | 0.162
27 | AGACCCTCTTGGGTTCTAACCTGTTGCCT (site AGACCCTCTAG) | 2.91
28 | AGACCCTCTTGGGTTCTAACCTGTTGCCT (site CGACCCTCTAG) | 0.728
29 | AGACCCTCTTGGGTTCTAACCTGTTGCCT (site GGACCCTCTAG) | 0.304
30 | AGACCCTCTTGGGTTCTAACCTGTTGCCT (site TGACCCTCTAG) | 1.3
31 | AGACGACCTTGGGTTCTAACCTGTTGCGG (site AGACGACCTCC) | 2.95
32 | AGACGACCTTGGGTTCTAACCTGTTGCGG (site GTCATGTCTGA) | 0.016
33 | AGACTAACTTGGGTTCTAACCTGTTGCCT (site AAACTAACTAG) | 0.124
34 | AGACTAACTTGGGTTCTAACCTGTTGCCT (site ACACTAACTAG) | 0.0816
35 | AGACTAACTTGGGTTCTAACCTGTTGCCT (site AGACTAACTAG) | 1.54
36 | AGACTAACTTGGGTTCTAACCTGTTGCCT (site ATACTAACTAG) | 0.29
37 | AGACTCCCTTGGGTTCTAACCTGTTGCAC (site ACACGCCCTGT) | 0.0745
38 | AGACTCCCTTGGGTTCTAACCTGTTGCAC (site AGACTCCCTGT) | 2.08
39 | AGACTGACTTGGGTTCTAACCTGTTGCGG (site AGACTGACTCC) | 2.18
40 | AGACTGACTTGGGTTCTAACCTGTTGCGG (site TCCAAATCTAG) | 0.232
41 | AGACTGGCTTGGGTTCTAACCTGTTGCCT (site AGACTGGCTAG) | 1.03
42 | AGACTGGCTTGGGTTCTAACCTGTTGCCT (site CGACAGGCTAG) | 0.176
43 | AGAGAGGCTTGGGTTCTAACCTGTTGCGG (site AGAGAGGCTCC) | 1.82
44 | AGAGAGGCTTGGGTTCTAACCTGTTGCGG (site CGAGAGTCTCC) | 0.125

Row | Sequence | recombinant barcode read abundance (log10)
45 | AGAGAGTCTTGGGTTCTAACCTGTTGCTT (site AGAGAGTCTAA) | 1.99
46 | AGAGAGTCTTGGGTTCTAACCTGTTGCTT (site ATAGAGTCTAA) | 0.602
47 | AGAGCGACTTGGGTTCTAACCTGTTGCCT (site AGAGAGACTAG) | 0.127
48 | AGAGCGACTTGGGTTCTAACCTGTTGCCT (site AGAGCGACTAG) | 0.727
49 | AGAGCGACTTGGGTTCTAACCTGTTGCCT (site AGAGGGACTAG) | 0.587
50 | AGAGCGACTTGGGTTCTAACCTGTTGCCT (site AGAGTGACTAG) | 0.0332
51 | AGAGCGACTTGGGTTCTAACCTGTTGCTA (site AGAGCGACTTA) | 0.654
52 | AGAGCGACTTGGGTTCTAACCTGTTGCTA (site CTCTACCCTCT) | 0.147
53 | AGAGCTCCTTGGGTTCTAACCTGTTGCCG (site AGAGCTCCTCG) | 1.03
54 | AGAGCTCCTTGGGTTCTAACCTGTTGCCG (site AGATCTCCTAG) | 0.468
55 | AGAGGAGCTTGGGTTCTAACCTGTTGCAG (site AGAGATGCTCT) | 0.115
56 | AGAGGAGCTTGGGTTCTAACCTGTTGCAG (site AGAGGAGCTCT) | 1.79
57 | AGAGGGACTTGGGTTCTAACCTGTTGCCT (site AGAGAGACTAG) | 1.25
58 | AGAGGGACTTGGGTTCTAACCTGTTGCCT (site AGAGCGACTAG) | 0.0189
59 | AGAGGGACTTGGGTTCTAACCTGTTGCCT (site AGAGGGACTAG) | 2.34
60 | AGAGGGACTTGGGTTCTAACCTGTTGCCT (site AGAGTGACTAG) | 0.0172
61 | AGAGTAGCTTGGGTTCTAACCTGTTGCAC (site AGAGTAGCTGT) | 2.41
62 | AGAGTAGCTTGGGTTCTAACCTGTTGCAC (site GTTTATACTTG) | 0.0243
63 | AGAGTAGCTTGGGTTCTAACCTGTTGCTA (site AGAGTAGCTTA) | 1.31
64 | AGAGTAGCTTGGGTTCTAACCTGTTGCTA (site CTCCCGACTGC) | 0.0353
65 | AGATAGCCTTGGGTTCTAACCTGTTGCCT (site AGATAGCCTAG) | 2.01
66 | AGATAGCCTTGGGTTCTAACCTGTTGCCT (site CGATAGCCTAG) | 0.102
